Experimental data reported in ChEMBL document CHEMBL5370686, “Design of Novel Series of Antimalarial PMX Inhibitors with Increased Half-Life via Molecular Property Optimization” (ACS Med Chem Lett, 2023).
Converted amounts (≈) assume the structure as drawn.

Assays:
[1] = Lipophilicity, log D of the compound in octanol/phosphate buffer at pH 7.4 incubated for 90 mins by shake flask method based LC-MS analysis; assay type: physicochemical; conditions: for logD at 1.5 h: octanol/phosphate buffer, pH 7.4
Cathepsin D = Cathepsin D (Homo sapiens, UniProt P07339); assay: Inhibition of human Cathepsin D using Mca-GKPILFFRLK(Dnp)-D-R-NH2 as substrate preincubated for 30 mins followed by substrate addition and measured after 60 mins by FRET assay; assay type: toxicity
Chain of Cathepsin D (P07339 65-162 limits assumed): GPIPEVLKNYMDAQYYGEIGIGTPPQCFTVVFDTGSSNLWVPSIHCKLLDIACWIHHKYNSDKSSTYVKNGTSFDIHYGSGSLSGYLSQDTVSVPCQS
Chain of Cathepsin D (P07339 169-412 limits assumed): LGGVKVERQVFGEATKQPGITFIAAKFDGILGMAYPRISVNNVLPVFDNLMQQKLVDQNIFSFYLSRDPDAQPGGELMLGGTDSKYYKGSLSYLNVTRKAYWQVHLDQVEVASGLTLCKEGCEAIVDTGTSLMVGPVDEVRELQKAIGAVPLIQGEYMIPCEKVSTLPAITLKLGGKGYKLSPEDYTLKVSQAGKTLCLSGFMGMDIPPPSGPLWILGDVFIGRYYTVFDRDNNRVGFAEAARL

Plasmodium falciparum = assay: Antimalarial activity against Plasmodium falciparum 3D7 by SYBR green 1 assay; assay type: functional, organism-based; conditions: for IC50: Plasmodium falciparum, 3D7
Plasmepsin X = Plasmepsin X (Plasmodium falciparum (isolate 3D7), UniProt Q8IAS0); assay: Inhibition of Plasmodium falciparum Plasmepsin X using Dabcyl-GSMLEVENDAEG-EDANS as substrate preincubated for 30 mins followed by substrate addition and measured every 2 mins for 30 mins by FRET assay
Chain of Plasmepsin X (Q8IAS0 whole entry): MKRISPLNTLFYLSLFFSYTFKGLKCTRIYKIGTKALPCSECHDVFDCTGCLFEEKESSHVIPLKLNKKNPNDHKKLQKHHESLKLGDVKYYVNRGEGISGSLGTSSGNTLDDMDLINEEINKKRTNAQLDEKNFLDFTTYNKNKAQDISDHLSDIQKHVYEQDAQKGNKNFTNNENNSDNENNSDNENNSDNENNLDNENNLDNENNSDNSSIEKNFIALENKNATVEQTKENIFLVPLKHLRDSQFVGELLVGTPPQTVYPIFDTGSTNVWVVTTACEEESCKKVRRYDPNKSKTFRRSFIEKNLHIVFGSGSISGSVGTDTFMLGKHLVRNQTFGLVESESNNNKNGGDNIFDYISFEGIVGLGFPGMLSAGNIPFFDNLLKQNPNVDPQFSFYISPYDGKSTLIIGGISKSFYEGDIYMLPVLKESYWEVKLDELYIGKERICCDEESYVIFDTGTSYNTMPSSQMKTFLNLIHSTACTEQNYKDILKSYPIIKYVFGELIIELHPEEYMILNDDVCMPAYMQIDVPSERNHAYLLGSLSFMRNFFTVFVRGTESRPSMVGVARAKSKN

[2] = system: Cathepsin D versus Plasmepsin X; assay: Selectivity ratio of IC50 for human Cathepsin D to IC50 for Plasmodium falciparum Plasmepsin X; assay type: toxicity; conditions: read-out: Ratio IC50
[3] = Intrinsic clearance in human hepatocytes assessed per 10^6 cells at 0.5 uM measured after 120 min by HRMS method; assay type: ADME, cell-based, Hepatocyte; conditions: read-out: CLH
[4] = Solubility of compound in FeSSIF at pH 5.8 incubated for 1 hr by LC/MS analysis; assay type: physicochemical
[5] = Drug level treated with (S)-6-(2,3'-dichloro-[1,1'-biphenyl]-3-yl)-2-imino-6-methyl-3-((2S,4S)-2-methyltetrahydro-2H-pyran-4-yl)tetrahydropyrimidin-4(1H)-one in human hepatocytes at 2 uM measured after 120 mins by UHPLC-MS analysis; assay type: ADME, cell-based, Hepatocyte
[6] = Drug metabolism in human hepatocytes at 2 uM measured after 120 mins by UHPLC-MS analysis; assay type: ADME, cell-based, Hepatocyte; conditions: 2 h
[7] = Drug metabolism in human hepatocytes assessed as (S)-4-(2,3'-dichloro-[1,1'-biphenyl]-3-yl)-4-methyltetrahydropyrimidin-2(1H)-imine formation at 2 uM measured after 120 mins by UHPLC-MS analysis; assay type: ADME, cell-based, Hepatocyte; conditions: 2 h
[8] = Apparent oral bioavailability in Sprague-Dawley rat plasma at 10 mg/kg administered via gavage by LC-MS/MS analysis; assay type: ADME, organism-based; conditions: read-out: Fapp
[9] = Tmax in Sprague-Dawley rat plasma at 10 mg/kg, po administered via gavage by LC-MS/MS analysis; assay type: ADME, organism-based
[10] = Half-life in Sprague-Dawley rat plasma at 1 mg/kg, iv administered via bolus at LC-MS/MS analysis; assay type: ADME, organism-based
[11] = AUC in Sprague-Dawley rat plasma at 10 mg/kg, po administered via gavage by LC-MS/MS analysis; assay type: ADME, organism-based; set-up: dose 10 mg/kg, route po
[12] = Volume of distribution at steady state in Sprague-Dawley rat plasma at 1 mg/kg, iv administered via bolus by LC-MS/MS analysis; assay type: ADME, organism-based; conditions: read-out: Vdss
[13] = Clearance in Sprague-Dawley rat plasma at 1 mg/kg, iv administered via bolus by LC-MS/MS analysis; assay type: ADME, organism-based
[14] = AUC in Sprague-Dawley rat plasma at 1 mg/kg, iv administered via bolus at LC-MS/MS analysis; assay type: ADME, organism-based; set-up: dose 1 mg/kg, route iv
[15] = Cmax in Sprague-Dawley rat plasma at 10 mg/kg, po administered via gavage by LC-MS/MS analysis; assay type: ADME, organism-based; set-up: dose 10 mg/kg, route po

logD at 1.5 h [1]	IC50 (Plasmodium falciparum)	IC50 (Plasmepsin X)	hepatocyte CLint at 0.5 µM [3]	solubility at 1 h [4]	Drug uptake [5]	Drug metabolism [6]	Drug metabolism [7]	logD ([1]; octanol/water, pH 7.4, 1.5 h, BLD = below limit of detection)	Tmax [9]	half-life [10]	AUC [11]	Vd [12]	clearance [13]	AUC [14]	Cmax [15]	SMILES	IC50 (Cathepsin D)	FIC50 (Plasmodium falciparum)	selectivity ratio [2]	bioavailability [8]
2.9	95 nM	9.4 nM	18 µL/min/1e6 cells	1010 µM (≈ 451 µg/mL)												C[C@H]1C[C@@H](N2C(=N)N[C@](C)(c3cccc(-c4ccc(F)cc4F)c3Cl)CC2=O)CCO1	644 nM	21.3 nM	71	
2.5	26.1 nM	11.2 nM	46 µL/min/1e6 cells	378 µM (≈ 202 µg/mL)												C[C@H]1C[C@@H](N2C(=N)N[C@](C)(c3cccc(-c4ccc5ncn(CC(F)(F)F)c5c4)c3Cl)CC2=O)CCO1	3.9 nM	12.4 nM	0.3	
3.7	92.3 nM	7.7 nM	26 µL/min/1e6 cells	664 µM (≈ 296 µg/mL)		Metabolite_Detected	Metabolite_Detected									C[C@H]1C[C@@H](N2C(=N)N[C@](C)(c3cccc(-c4cccc(Cl)c4)c3Cl)CC2=O)CCO1	10.8 nM	16.2 nM	1.3	
2.1	84.9 nM	10.8 nM	< 3 µL/min/1e6 cells	1030 µM (≈ 543 µg/mL)												C[C@H]1C[C@@H](N2C(=N)N[C@](C)(c3cccc(-c4ccc(OC(F)F)nc4)c3Cl)CC2=O)CCS1(=O)=O	593 nM	23.4 nM	53.9	
1.8	93.5 nM	263 nM	8.2 µL/min/1e6 cells	> 1500 µM												C[C@H]1C[C@@H](N2C(=N)N[C@](C)(c3cccc(-c4ccc(F)cc4F)c3Cl)CC2=O)CCN1C	3820 nM	37.4 nM	14.5	
	78.1 nM	9.5 nM	< 3 µL/min/1e6 cells	833 µM (≈ 442 µg/mL)				Bld								C[C@H]1C[C@@H](N2C(=N)N[C@](C)(c3cccc(-c4ccc(OC(F)(F)F)cc4Cl)c3Cl)CC2=O)CCO1	1590 nM	0.8 nM	176	
2.4	74.1 nM	10.2 nM	3.3 µL/min/1e6 cells	1130 µM (≈ 558 µg/mL)												C[C@H]1C[C@@H](N2C(=N)N[C@](C)(c3cccc(-c4ccc(F)cc4F)c3Cl)CC2=O)CCS1(=O)=O	366 nM	16.7 nM	36.5	
3.5	246 nM	9.9 nM	25 µL/min/1e6 cells	> 1500 µM												C[C@@H]1C[C@H](N2C(=N)N[C@](C)(c3cccc(-c4cccc(Cl)c4)c3Cl)CC2=O)CC[C@@H]1O	47.3 nM	40.9 nM	4.7	
2.4	107 nM	11.2 nM	< 3 µL/min/1e6 cells	697 µM (≈ 380 µg/mL)					4 h	9.2 h	4.68 µM·h	13.1 L/kg	20 mL/min/kg	1.6 µM·h	423 nM	C[C@H]1C[C@@H](N2C(=N)N[C@](C)(c3cccc(-c4ccc(OC(F)(F)F)nc4)c3Cl)CC2=O)CCS1(=O)=O	1540 nM	27.9 nM	140	29%
2	87.5 nM	12.8 nM	< 3 µL/min/1e6 cells													C[C@H]1C[C@@H](N2C(=N)N[C@](C)(c3cccc(-c4ccc(C5CC5)nc4)c3Cl)CC2=O)CCS1(=O)=O	2680 nM	27.1 nM	206	
2.5	21.6 nM	8.8 nM	75 µL/min/1e6 cells	> 1500 µM												C[C@H]1C[C@@H](N2C(=N)N[C@](C)(c3cccc(-c4cncc(Cl)c4)c3Cl)CC2=O)CCO1	32.3 nM	15.2 nM	3.5	

More lines, now with the values behind:

SMILES	logD at 1.5 h [1]	IC50 (Plasmodium falciparum)	IC50 (Plasmepsin X)	hepatocyte CLint at 0.5 µM [3]	solubility at 1 h [4]	Drug uptake [5]	Drug metabolism [6]	Drug metabolism [7]	logD ([1]; octanol/water, pH 7.4, 1.5 h, BLD = below limit of detection)	Tmax [9]	half-life [10]	AUC [11]	Vd [12]	clearance [13]	AUC [14]	Cmax [15]	IC50 (Cathepsin D)	FIC50 (Plasmodium falciparum)	selectivity ratio [2]	bioavailability [8]
C[C@@]1(c2cccc(-c3ccc(F)cc3F)c2Cl)CC(=O)N([C@H]2CCC(F)(F)[C@@H](O)C2)C(=N)N1	2.4	280 nM	23.3 nM	4.7 µL/min/1e6 cells													396 nM	32.5 nM	17	
C[C@@]1(c2cccc(-c3cccc(Cl)c3)c2Cl)CCNC(=N)N1						Active														
C[C@H]1C[C@@H](N2C(=N)N[C@](C)(c3cccc(-c4cnn5cccnc45)c3Cl)CC2=O)CCO1	1.2	137 nM	22.4 nM	18 µL/min/1e6 cells	> 1500 µM												1300 nM	131.3 nM	59	
C[C@@]1(c2cccc(-c3cccc(Cl)c3)c2Cl)CC(=O)N([C@H]2CCOC[C@@H]2O)C(=N)N1	2.4	323 nM	56.5 nM	8.2 µL/min/1e6 cells	1390 µM (≈ 624 µg/mL)												226 nM	135.6 nM	3.9	
CN(C)[C@H]1C[C@@H](N2C(=N)N[C@](C)(c3cccc(-c4ccc(F)cc4F)c3Cl)CC2=O)C1	1.5	657 nM	2260 nM	16 µL/min/1e6 cells	> 1500 µM												28300 nM	251.5 nM	12.5	
C[C@H]1C[C@@H](N2C(=N)N[C@](C)(c3cccc(-c4ccc(Cl)cc4Cl)c3Cl)CC2=O)CCO1	3.4	66.2 nM	5.2 nM	5.7 µL/min/1e6 cells	69 µM (≈ 33.2 µg/mL)												771 nM	3.5 nM	154	
C[C@H]1C[C@@H](N2C(=N)N[C@](C)(c3cccc(-c4ccccc4Cl)c3Cl)CC2=O)CCO1	3	105 nM	10.9 nM	29 µL/min/1e6 cells	562 µM (≈ 251 µg/mL)												2240 nM	28.4 nM	204	
C[C@H]1C[C@@H](N2C(=N)N[C@](C)(c3cccc(NC(=O)c4cccc(C#N)c4)c3Cl)CC2=O)CCO1	1.3	8.3 nM	7.6 nM	4 µL/min/1e6 cells	1020 µM (≈ 490 µg/mL)													7.7 nM	555	18%
